Patent US7732658B2, “Composition and method for imaging cells” (Dana Farber Cancer Institute, Inc., priority 2002, dated 2010)

What was measured:
[1] = tested on: multiple myeloma (MM) model; assay: multiple myeloma (MM) model, cells selected for growth in bone; type: in vivo
From the text: FIG. 19 is a representation of the results of generating a multiple myeloma (MM) model, that was created by selecting cells with affinity for growth in bone.

32D/p210-Luc cells = assay: CML model, 32D/p210-Luc cells imaged in vivo; set-up: species or system mice
From the text: FIG. 21 is a representation showing the results of a CML model used to evaluate the ABL-inhibitor AMN107.

TS(4;11)-LucNeo cells = assay: in vivo bioluminescence imaging of mice bearing MLL leukemia cell line TS(4;11), drug treatment
From the text: FIG. 15 is a pictorial representation of treatment of mice bearing MLL leukemia cell line TS(4;11) with the FLT3 inhibitor PKC-412.

SMILES: Nc1ncnc2c1c(-c1cccc(OCc3ccccc3)c1)cn2C1CC(CN2CCCC2)C1 (stereo not drawn) [ADW]
- tumor burden ([1]; FIG. 19): reduction of tumor burden
- survival as compared to untreated control ([1]; FIG. 20): positively correlated with survival

SMILES: Cc1cn(-c2cc(NC(=O)c3ccc(C)c(Nc4nccc(-c5cccnc5)n4)c3)cc(C(F)(F)F)c2)cn1 [AMN107]
- tumor cell growth of 32D/p210-Luc cells (quantitative) (32D/p210-Luc cells; FIG. 22): inhibits tumor cell growth
- efficacy against 32D/p210-Luc cells in vivo (qualitative) (32D/p210-Luc cells; five animals, nine day assay, FIG. 21): efficacious

SMILES: CO[C@@H]1[C@H](N(C)C(=O)c2ccccc2)C[C@H]2O[C@]1(C)n1c3ccccc3c3c4c(c5c6ccccc6n2c5c31)C(=O)NC4 [PKC-412]
- tumor cell size (TS(4;11)-LucNeo cells; mice bearing TS(4;11) MLL cells, FIG. 16 left graph): reduces tumor cell size
- bioluminescent flux as compared to controls (TS(4;11)-LucNeo cells; nude mice, TS(4;11)-LucNeo cells, 150 mg/kg/day over a two week period): constant bioluminescent flux
